Measured values published in patent publication US8518492B2, “Composition, method for manufacturing thin film, and method for manufacturing light-emitting element” (Semiconductor Energy Laboratory Co., Ltd., priority 2008, dated 2013).
Where two headings read alike, the source gives them in different places.

Key:
[1] = Solubility test of anthracene derivatives in solvents; format: physicochemical; details: for solubility at 10 min: organic solvent or mixture, thermodynamic from solid, ultrasonic waves 10 minutes; for solubility in a solvent (summary in words): solubility test at 10 g/L, six solvents
Procedure: As comparative examples, compositions were produced by dissolving samples 1-1 to 1-4 in solvents. As manufacturing examples 1, compositions were produced by dissolving samples 1-5 to 1-14 in solvents. The solubility test was performed on the solvents of the anthracene derivatives of the samples […]. The following six solvents were used: diethyl ether, toluene, ethyl acetate, anisole, acetone, and 1,4-dioxane.
0.01 g of each of the anthracene derivatives of the samples 1-1 to 1-14 was measured and put in a sample bottle, 1 mL of a solvent was added in the sample bottle (the solution concentration was 10 g/L), and ultrasonic waves were applied thereto for 10 minutes.

[2] = Film quality test of spin-coated thin films; format: physicochemical; design: key to Film Quality Test, Solvent Toluene / Film Quality Test, Solvent Ethyl acetate / Film Quality Test, Solvent Anisole / Film Quality Test, Solvent dioxane: ◯: a circle is marked in the case of a transparent film where crystallization or white turbidity is not seen; X: a cross is marked in the case of a film where crystallization or white turbidity is seen; details: for Film Quality Test, Solvent Anisole: 10 g/L in anisole; for Film Quality Test, Solvent Anisole / Film Quality Test, Solvent dioxane / Film Quality Test, Solvent Ethyl acetate / Film Quality Test, Solvent Toluene: spin coated on glass substrate at 1000 rpm (60 seconds); for Film Quality Test, Solvent dioxane: 10 g/L in dioxane; for Film Quality Test, Solvent Ethyl acetate: 10 g/L in ethyl acetate; for Film Quality Test, Solvent Toluene: 10 g/L in toluene
Procedure: A composition of each of the samples was adjusted at a concentration of 10 g/L which is the same as that of the solubility test and was deposited over a glass substrate with a size of 5 inches at 1000 rpm (60 seconds) with a spin coater.

[3] = 0.01 g in 1 mL 1,4-dioxane (10 g/L), read-out: Solubility Test, Solvent dioxane
[4] = 0.01 g in 1 mL acetone (10 g/L), read-out: Solubility Test, Solvent acetone
[5] = 0.01 g in 1 mL anisole (10 g/L), read-out: Solubility Test, Solvent Anisole
[6] = 0.01 g in 1 mL diethyl ether (10 g/L), read-out: Solubility Test, Solvent Diethyl ether
[7] = 0.01 g in 1 mL ethyl acetate (10 g/L), read-out: Solubility Test, Solvent Ethyl acetate
[8] = 0.01 g in 1 mL toluene (10 g/L), read-out: Solubility Test, Solvent Toluene

| solubility at 10 min [1, 3] [µg/mL] | solubility at 10 min [1, 4] [µg/mL] | solubility at 10 min [1, 5] [µg/mL] | solubility at 10 min [1, 6] [µg/mL] | solubility at 10 min [1, 7] [µg/mL] | solubility at 10 min [1, 8] [µg/mL] | Film Quality Test, Solvent Anisole [2] | Film Quality Test, Solvent dioxane [2] | Film Quality Test, Solvent Ethyl acetate [2] | Film Quality Test, Solvent Toluene [2] | SMILES | solubility in a solvent (summary in words) [1] | film quality (summary in words) ([2]; film quality test, spin coated from 10 g/L composition) |
| --- | --- | --- | --- | --- | --- | --- | --- | --- | --- | --- | --- | --- |
| > 10000 | < 10000 | > 10000 | < 10000 | < 10000 | > 10000 | ◯ | ◯ | X | ◯ | c1ccc(-c2c3ccccc3c(-c3cccc(-n4c5ccccc5c5ccccc54)c3)c3ccccc23)cc1 [Sample 1-7, 9-[3-(10-phenyl-9-anthryl)phenyl]-9H-carbazole] |  |  |
| > 10000 | < 10000 | > 10000 | < 10000 | < 10000 | > 10000 | ◯ | X | X | ◯ | c1ccc2cc(-c3c4ccccc4c(-c4ccc(-n5c6ccccc6c6ccccc65)cc4)c4ccccc34)ccc2c1 [Sample 1-9, 9-[4-(carbazol-9-yl)phenyl]-10-(2-naphthyl)anthracene] |  |  |
|  |  |  |  |  |  | ◯ | X | X | ◯ | CC(C)(C)c1ccc(-c2c3ccccc3c(-c3ccc(-n4c5ccccc5c5ccccc54)cc3)c3ccccc23)cc1 [Sample 1-8, 9-(4-tert-butylphenyl)-10-[4-(carbazol-9-yl)]phenylanthracene] |  |  |
|  |  |  |  |  |  | ◯ | X | X | ◯ | c1ccc(-c2c3ccccc3c(-c3ccc(-n4c5ccccc5c5ccccc54)cc3)c3ccccc23)cc1 [Sample 1-5, 9-[4-(N-carbazolyl)]phenyl-10-phenylanthracene] |  |  |
| > 10000 | < 10000 | > 10000 |  | < 10000 | > 10000 | ◯ | X | X | ◯ | c1ccc(-c2c3ccccc3c(-c3ccccc3)c3cc(-c4ccc(-n5c6ccccc6c6ccccc65)cc4)ccc23)cc1 [Sample 1-11, 9-[4-(9,10-diphenyl-2-anthryl)phenyl]-9H-carbazole] |  |  |
| < 10000 | < 10000 | < 10000 | < 10000 | < 10000 | < 10000 |  |  |  |  | c1ccc2c(-c3ccc(-n4c5ccccc5c5ccccc54)cc3)c3ccccc3c(-c3ccc(-n4c5ccccc5c5ccccc54)cc3)c2c1 [Sample 1-2, 9,10-bis(4-(N-carbazolyl)phenyl)anthracene, reference compound] | low solubility |  |
|  |  |  |  |  |  |  |  |  |  | CC(C)(C)c1ccc2c(-c3ccc(-c4ccc5c(c4)c4ccccc4n5-c4ccccc4)cc3)c3ccccc3c(-c3ccc(-c4ccc5c(c4)c4ccccc4n5-c4ccccc4)cc3)c2c1 [Sample 1-4, 3,3′-(2-tert-buthylanthracene-9,10′-diyldi-4,1-phenylene)bis(9-phenyl-9H-carbazole), reference compound] | low solubility |  |
| < 10000 | < 10000 | < 10000 | < 10000 | < 10000 | < 10000 |  |  |  |  | c1ccc(-c2c3ccccc3c(-c3ccc(-n4c5ccccc5c5cc(-c6ccc7c(c6)c6ccccc6n7-c6ccccc6)ccc54)cc3)c3ccccc23)cc1 [Sample 1-3, 9-phenyl-9′-[4-(10-phenyl-9-anthryl)phenyl]-3,3′-bi(9H-carbazole), reference compound] | low solubility |  |
| > 10000 | > 10000 | > 10000 |  | > 10000 | > 10000 | ◯ | X | ◯ | ◯ | c1ccc(-c2c3ccccc3c(-c3ccccc3)c3cc(-c4ccc5c(c4)c4ccccc4n5-c4ccccc4)ccc23)cc1 [Sample 1-13, 3-(9,10-diphenyl-2-anthryl)-9-phenyl-9H-carbazole] |  |  |
| > 10000 | < 10000 | > 10000 | > 10000 | > 10000 | > 10000 | ◯ | X | ◯ | ◯ | c1ccc(-c2c3ccccc3c(-c3ccccc3)c3cc(-n4c5ccccc5c5ccccc54)ccc23)cc1 [Sample 1-12, 9-(9,10-diphenyl-2-anthryl)-9H-carbazole] |  |  |
| > 10000 | < 10000 | > 10000 | < 10000 | < 10000 | > 10000 | ◯ | X | X | ◯ | c1ccc(-c2c3ccccc3c(-c3ccc(-c4ccc5c(c4)c4ccccc4n5-c4ccccc4)cc3)c3ccccc23)cc1 [Sample 1-6, 9-phenyl-3-[4-(10-phenyl-9-anthryl)phenyl]-9H-carbazol] |  |  |

| SMILES | solubility at 10 min [1, 3] [µg/mL] | solubility at 10 min [1, 4] [µg/mL] | solubility at 10 min [1, 5] [µg/mL] | solubility at 10 min [1, 6] [µg/mL] | solubility at 10 min [1, 7] [µg/mL] | solubility at 10 min [1, 8] [µg/mL] | Film Quality Test, Solvent Anisole [2] | Film Quality Test, Solvent dioxane [2] | Film Quality Test, Solvent Ethyl acetate [2] | Film Quality Test, Solvent Toluene [2] | solubility in a solvent (summary in words) [1] | film quality (summary in words) ([2]; film quality test, spin coated from 10 g/L composition) |
| --- | --- | --- | --- | --- | --- | --- | --- | --- | --- | --- | --- | --- |
| c1ccc(-c2ccccc2-c2c3ccccc3c(-c3ccccc3-c3ccccc3)c3cc(-n4c5ccccc5c5ccccc54)ccc23)cc1 [Sample 1-14, 9-[9,10-bis(2-biphenyl)-2-anthryl]-9H-carbazole] |  |  |  |  |  |  | ◯ | X | ◯ | ◯ |  |  |
| c1ccc(-c2c3ccccc3c(-c3ccccc3)c3ccccc23)cc1 [Sample 1-1, 9,10-diphenylanthracene, reference compound] | < 10000 | < 10000 | > 10000 | < 10000 | < 10000 | > 10000 | X | X | X | X | high solubility | crystallized film with a bad quality |
| c1ccc(-c2ccc3c(c2)c2cc(-c4ccccc4)ccc2n3-c2ccc(-c3c4ccccc4c(-c4ccccc4)c4ccccc34)cc2)cc1 [Sample 1-10, 3,6-diphenyl-9-[4-(10-phenyl-9-antryl)phenyl]-9H-carbazole] |  |  |  |  |  |  | ◯ | X | X | ◯ |  |  |
